According to patent publication US6825340B2, “Methods and reagents for inactivating ribonucleases” (Ambion, Inc., priority 1998, dated 2004):

How the values were obtained:
[1] = system: RNase mixture (RNase A, RNase 1, RNase T1); experiment: Non-isotopic RNase inactivation assay (mouse total RNA, agarose gel); type: biochemical, human, E. coli and a fungus
Source text: The inventors routinely perform assays on RNA designed to assess RNase activity in a sample. Two different assays are typically used for the detection of ribonuclease activity, non-isotopic and isotopic. […] In both assays, the inactivation process is typically performed on a mixture of three different ribonucleases: RNase A, RNase 1, and RNase T1. Each ribonuclease is purified from a different species: […], E. coli and a fungus, respectively. The three RNases are very different from each other in their origin, substrate specificity and protein sequence. In this way, the inactivation process can test three completely different but well characterized ribonucleases. The standard stock RNase mixture employed in the following examples is prepared by combining 1 μl RNase 1 (100 U/μl; Ambion), 1 μl RNase cocktail (RNase A, 0.5 U/μl; RNase T1, 20 U/μl, Ambion) and 98 μl water. The non-isotopic assay uses total RNA isolated from mouse as the substrate for the RNase mixture. […] A quantity of 4 μg of total RNA isolated from mouse liver or brain was dissolved in an aqueous solution, usually water or 1 mM sodium citrate (pH 6.6). The treated ribonuclease sample was added to the total RNA and then incubated at 37° C. for 1 or 16 hours, depending on the sensitivity desired for the assay. After incubation, the RNA was fractionated in a formaldehyde 1% agarose gel. The RNA was detected by staining with ethidium bromide and then illuminating the gel with ultraviolet light. The RNA fluoresces in the gel. Untreated total RNA was also fractionated as a control with the test samples for comparative purposes. […] Intact total RNA has two major bands produced by the 28S and 18S ribosomal RNA. […] The RNase cocktail was made to various concentrations in different buffers in different DTT concentrations and incubated at 37° C. or 60° C. for 20 minutes. Total mouse RNA was added to the treated RNase mixture and incubated at 37° C. for one hour, fractionated in a formaldehyde denaturing 1% agarose gel and the RNA visualized by ethidium bromide staining and UV fluorescence.

DNase I = DNase I (Bos taurus, UniProt P00639); experiment: DNase I activity after reducing/heat treatment, plasmid DNA degradation; type: biochemical; details: 20 mM reducing reagent in water; DNase I 0.4 units/μl; 60° C. for 20 minutes
DNase I, sequence (P00639 23-282): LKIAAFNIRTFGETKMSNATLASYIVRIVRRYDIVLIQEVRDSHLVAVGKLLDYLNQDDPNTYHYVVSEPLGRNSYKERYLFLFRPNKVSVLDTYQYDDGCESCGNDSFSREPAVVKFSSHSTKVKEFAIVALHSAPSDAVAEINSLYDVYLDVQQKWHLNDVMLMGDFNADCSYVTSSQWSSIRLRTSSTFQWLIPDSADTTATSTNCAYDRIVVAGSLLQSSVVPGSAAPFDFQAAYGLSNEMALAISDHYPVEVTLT
Description: DNase I is commonly used to degrade contaminating DNA in RNA preparations. To test whether the inactivation method affected DNase I activity, DNase I (final concentration of 0.4 units/μl) was added to water containing 20 mM DTT, DTE or β-mercaptoethanol. The mixture was incubated at 60° C. for 20 minutes. After the heat treatment, the DNase I activity was tested by incubating the treated DNase I with plasmid DNA (0.2 μg/μl ) at 37° C. for one hour followed by electrophoresis in a 1% agarose gel.

[2] = system: AMV reverse transcriptase; experiment: Reverse transcription reaction (RETROscript kit), dCTP[α-32P] incorporation; type: biochemical; details: 20 mM reducing reagent
Description: (§1) FIG. 2. […] Reverse transcriptions were performed using the RETROscript™ kit (Ambion, Inc.). Mouse total RNA in DEPC-treated water was reverse transcribed with either MMLV or AMV reverse transcriptase in the presence or absence of 20 mM DTT. dCTP[α^32P] was included in the reactions to measure the efficiency of reverse transcription. Following incubation at 42° C. for 1 h, 5 μl of each reaction was subjected to TCA precipitation to measure the amount of dCTP[α^32P] incorporated into cDNA by reverse transcription.
(§2) The reverse transcription reactions were performed using the RETROscript™ kit (Ambion, Inc.). The following were assembled with or without 20 mM of the reducing reagents in a final volume of 19 μl: dNTPs (0.5 mM each), oligo dT (5 μM), 0.4 μl dCTP[α-^32p] (3000 Ci/mmol), 10 mM Tris-HCl (pH 8.3): 50 mM KCl: 1.5 mM MgCl2, mouse brain total RNA (4 μg). The reaction mixtures were incubated at 65° C. for 10 minutes. 1 μl (100 units) of AMV or MMLV reverse transcriptase were added and then the reactions were incubated at 42° C. for 1 hour. Reverse transcription by either enzyme was not inhibited by DTT (FIG. 2) or by DTE or β-mercaptoethanol.

[3] = molecular target: T1, MMLV reverse transcriptase (Moloney murine leukemia virus, UniProt P03355); experiment: as above; type: biochemical; details: 20 mM reducing reagent
T1 construct: purchased Ambion, Inc
Description: as §1, §2

T7 RNA polymerase = molecular target: T2, T7 RNA polymerase (Escherichia phage T7, UniProt P00573); experiment: In vitro transcription reaction (MAXIscript kit), UTP[α-32P] incorporation; type: biochemical; details: 20 mM reducing reagent
T2 construct: purchased Ambion, Inc
T2 sequence (P00573 whole entry): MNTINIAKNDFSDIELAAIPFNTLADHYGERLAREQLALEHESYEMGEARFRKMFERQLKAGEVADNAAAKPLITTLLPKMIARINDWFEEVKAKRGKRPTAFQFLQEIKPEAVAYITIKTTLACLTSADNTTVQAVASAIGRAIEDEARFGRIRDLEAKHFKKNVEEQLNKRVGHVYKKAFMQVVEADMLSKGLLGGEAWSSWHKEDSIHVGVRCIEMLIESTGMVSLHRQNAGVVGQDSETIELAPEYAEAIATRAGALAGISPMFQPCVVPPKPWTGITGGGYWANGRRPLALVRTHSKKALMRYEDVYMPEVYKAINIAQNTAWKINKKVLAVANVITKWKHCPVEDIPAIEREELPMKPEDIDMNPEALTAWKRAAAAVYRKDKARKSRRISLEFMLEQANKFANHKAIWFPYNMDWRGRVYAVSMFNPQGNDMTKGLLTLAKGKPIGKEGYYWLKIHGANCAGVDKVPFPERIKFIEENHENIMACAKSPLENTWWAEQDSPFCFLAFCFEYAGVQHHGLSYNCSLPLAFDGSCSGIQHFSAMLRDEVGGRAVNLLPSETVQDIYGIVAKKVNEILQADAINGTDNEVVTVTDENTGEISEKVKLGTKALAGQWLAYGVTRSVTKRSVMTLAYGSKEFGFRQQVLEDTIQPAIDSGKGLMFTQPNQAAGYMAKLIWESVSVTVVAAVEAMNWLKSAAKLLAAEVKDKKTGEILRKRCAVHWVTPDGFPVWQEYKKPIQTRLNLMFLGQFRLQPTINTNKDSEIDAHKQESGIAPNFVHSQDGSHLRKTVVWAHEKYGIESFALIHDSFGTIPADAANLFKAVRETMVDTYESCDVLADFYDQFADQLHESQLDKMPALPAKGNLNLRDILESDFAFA
Description: (§3) FIG. 3. […] Transcriptions were performed with T7, T3 and SP6 RNA polymerase in the presence and absence of 20 mM DTT. For each RNA polymerase reaction, pTRI-Xef DNA was the template and UTP[α^32P] was included to measure the efficiency of transcription. Duplicates were performed for each reaction. TCA precipitations were performed on each transcription reaction to measure the percent of the UTP[α^32P] incorporated into RNA.
(§4) The transcription reactions were based on the MAXIscript™ transcription kit (Ambion, Inc.). The following were assembled with or without 20 mM reducing reagent in a final volume of 18 μl: NTPs (0.5 mM each), 1 μg linearized DNA template, 2 μl 10 × transcription buffer, and 0.2 μl UTP [α-^32P] (800 Ci/mmol). The reaction mixtures were incubated 60° C. for 10 minutes and then 2 μl of the either SP6, T7 or T3 RNA polymerase (10 units/μl) were added to the reactions, incubated 30° C. for 60 minutes and then TCA precipitated to assess the incorporation of the radioactive label.

T3 RNA polymerase = molecular target: T3, T3 RNA polymerase (Enterobacteria phage T3, UniProt P07659); experiment: as above; type: biochemical; details: 20 mM reducing reagent
T3 construct: purchased Ambion, Inc
Description: as §3, §4

SP6 RNA polymerase = molecular target: T4, SP6 RNA polymerase (Enterobacteria phage SP6, UniProt P06221); experiment: as above; type: biochemical; details: 20 mM reducing reagent
T4 construct: purchased Ambion, Inc
T4 sequence (P06221 1-874): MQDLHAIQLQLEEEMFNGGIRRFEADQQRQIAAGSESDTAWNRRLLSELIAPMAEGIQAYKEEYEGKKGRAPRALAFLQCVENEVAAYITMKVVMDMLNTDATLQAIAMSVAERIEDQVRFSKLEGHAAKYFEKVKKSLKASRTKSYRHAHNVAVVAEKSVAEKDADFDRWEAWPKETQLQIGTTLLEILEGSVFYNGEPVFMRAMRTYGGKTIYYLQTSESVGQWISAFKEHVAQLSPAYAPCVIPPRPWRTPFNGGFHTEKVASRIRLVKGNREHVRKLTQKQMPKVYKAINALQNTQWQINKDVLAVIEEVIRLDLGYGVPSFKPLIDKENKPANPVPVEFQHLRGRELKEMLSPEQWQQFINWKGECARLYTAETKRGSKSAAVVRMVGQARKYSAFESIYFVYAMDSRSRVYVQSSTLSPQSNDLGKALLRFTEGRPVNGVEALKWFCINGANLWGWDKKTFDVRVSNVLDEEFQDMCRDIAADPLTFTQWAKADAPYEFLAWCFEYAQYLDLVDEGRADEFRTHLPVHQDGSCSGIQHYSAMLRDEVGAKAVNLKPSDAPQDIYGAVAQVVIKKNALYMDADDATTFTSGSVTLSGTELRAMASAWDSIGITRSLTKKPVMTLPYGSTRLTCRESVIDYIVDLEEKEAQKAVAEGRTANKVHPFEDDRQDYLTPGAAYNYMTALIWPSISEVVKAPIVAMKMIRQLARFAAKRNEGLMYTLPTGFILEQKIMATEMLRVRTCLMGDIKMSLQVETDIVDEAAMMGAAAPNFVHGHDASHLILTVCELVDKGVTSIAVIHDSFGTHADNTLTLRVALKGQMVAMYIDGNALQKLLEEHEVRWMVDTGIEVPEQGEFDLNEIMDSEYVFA
Description: as §3, §4

[4] = reducing reagent 20 mM, RNase mixture 200 ng/ml, 60° C. for 20 minutes

Row | RNase mixture inactivation ([1]; 10 mM cysteine, RNase mixture 200 ng/ml, 1 mM sodium citrate (pH 6.4), 68° C. for 20 minutes) | RNase mixture inactivation ([1]; 20 mM cysteine, RNase mixture 200 ng/ml, 1 mM sodium citrate (pH 6.4), 68° C. for 20 minutes) | RNase mixture inactivation ([1]; 40 mM cysteine, RNase mixture 200 ng/ml, 1 mM sodium citrate (pH 6.4), 68° C. for 20 minutes) | RNase mixture inactivation ([1]; 60 mM cysteine, RNase mixture 200 ng/ml, 1 mM sodium citrate (pH 6.4), 68° C. for 20 minutes) | RNase mixture inactivation ([1]; heated DTT diluted to 20 mM, RNase mixture 200 ng/ml in water, 60° C. for 20 minutes) | SMILES | RNase mixture inactivation [1, 4] | DNase I activity after reducing/heat treatment (DNase I) | inhibition of reverse transcription by AMV reverse transcriptase [2] | inhibition of reverse transcription by MMLV reverse transcriptase [3] | inhibition of T7 RNA polymerase transcription (T7 RNA polymerase) | inhibition of T3 RNA polymerase transcription (T3 RNA polymerase) | inhibition of SP6 RNA polymerase transcription (SP6 RNA polymerase)
1 |  |  |  |  |  | O[C@H](CS)[C@@H](O)CS [DTE, dithioerythritol] | inactivate RNase activity completely | not affected | not inhibited | not inhibited | None of the three polymerases were inhibited | None of the three polymerases were inhibited | None of the three polymerases were inhibited
2 | inactivated | inactivated | inactivated | inactivated |  | N[C@@H](CS)C(=O)O [cysteine] |  |  |  |  |  |  | 
3 |  |  |  |  | did not inactivate | OC1CSSCC1O (stereo not shown) [oxidized DTT] |  |  |  |  |  |  | 
4 |  |  |  |  |  | OCCS [β-mercaptoethanol] | inactivate RNase activity completely | not affected | not inhibited | not inhibited | None of the three polymerases were inhibited | None of the three polymerases were inhibited | None of the three polymerases were inhibited
